{"source": "patent US10899763B2", "about": "“Crystalline forms of salts of fused penta-cyclic dihydrodiazepinocarbazolones, and uses thereof” (BEIGENE, LTD., priority 2017, dated 2021)", "key": {"[1]": {"tested_on": "MDA-MB-231 cells", "experiment": "Synthetic lethality, CellTiter-Glo cell viability, MDA-MB-231", "assay_type": "cell-based", "conditions": "Homo sapiens; MDA-MB-231, BRCA wildtype; read-out: EC50", "description": "MDA-MB-231 cells that is not BRCA gene mutant or other homologous recombination deficient were maintained in DMEM supplemented with fetal bovine serum (10% FBS), 100 units/ml penicillin and 0.1 mg/ml streptomycin. BRCA1-deficient cell line MDA-MB-436 was maintained in RPMI-1640 supplemented with 10% FBS, 100 units/ml penicillin and 0.1 mg/ml streptomycin. Both two cell lines were kept at 95% humidity and 5% CO2 in a 37° C. incubator.\nThe number of tumor cells seeded per well of a 96-well plate was optimized for each cell line to ensure logarithmic growth over the 7 days treatment period. Cells were left to attach for 16 hours and then treated with specific concentrations of test compounds. Following a 7-day exposure to the compound, the growth-inhibitory activity of compounds was determined using CellTiter-Glo luminescent cell viability assay (Promega). Luminescent signal was measured using PHERAstar FS reader (BMG Labtech). Cell viability was expressed as relative to mock treatment control. EC50 values for growth inhibition were calculated by fitting dose-dependent data to the four-parameter logistic model using XLfit software."}, "[2]": {"experiment": "Nonclinical toxicity, single and repeat dose up to 28 days, dogs", "assay_type": "in vivo"}, "[3]": {"experiment": "Tissue distribution and excretion after oral administration in rats", "assay_type": "in vivo", "description": "After oral administration in rats, Compound 1 was detected in all organs checked. The drug concentrations reached maximum at 0.25 to 1 hour post-dosing and decreased to less than 10% of the peak concentration at 24 hours post-dosing.\nCompound 1 was primarily excreted in feces. The accumulative excretion amounts of Compound 1 in feces were 15% to 20% (up to 48 hours) after oral administration. Less than 1% of Compound 1 was excreted in urine and bile in rats."}, "[4]": {"tested_on": "CYP isoform", "experiment": "CYP isoforms responsible for metabolism", "assay_type": "in vitro ADME"}, "[5]": {"tested_on": "intracranial H209 xenografts", "experiment": "Intracranial H209 xenograft model", "assay_type": "in vivo, Mice", "conditions": "addition of Compound 1 to TMZ", "text": "(§1) The in vivo efficacy of Compound 1 was explored in H209 SCLC xenograft model to evaluate the combination effect of Compound 1 and Temozolomide (TMZ), a DNA alkylating agent. TMZ single agent was quite effective in this model. […] However, resistance occurred quickly during the second cycle. […] In order to investigate whether Compound 1 could overcome the TMZ resistance, TMZ-resistant (TR) H209 tumors were generated by treating the H209 tumors with multiple cycles of TMZ in vivo. […] Mice with established intracranial H209 xenografts were used to further investigate the combination activity of Compound 1 and TMZ on SCLC in brain."}, "[6]": {"experiment": "Pharmacokinetics in rat", "assay_type": "in vivo", "description": "(§2) The species used for the pharmacokinetic studies were rat and dog. Compound 1 had good to excellent oral bioavailability (>40%) in both species. Elimination half-lives ranged from 3.1 to 5.0 hours in rats and 1.5 to 2.5 hours in dogs after oral administration. […] Steady state volume of distribution in rats and dogs was 2.4 L/kg and 1.9 L/kg, respectively."}, "[7]": {"experiment": "Metabolism in rat liver microsomes", "assay_type": "in vitro ADME"}, "[8]": {"experiment": "Ames assay", "assay_type": "cell-based"}, "[9]": {"experiment": "Plasma protein binding, rat plasma", "assay_type": "in vitro ADME"}, "[10]": {"experiment": "Phase I clinical safety study", "assay_type": "in vivo", "conditions": "BRCA1/2 mutant ovary cancer patients"}, "[11]": {"experiment": "Pharmacokinetics in dog", "assay_type": "in vivo", "description": "as §2"}, "[12]": {"tested_on": "CYP3A", "experiment": "CYP induction, CYP3A", "assay_type": "in vitro ADME, human"}, "[13]": {"tested_on": "BRCA1 mutation breast cancer xenograft", "experiment": "BRCA1 mutation breast cancer xenograft model", "assay_type": "in vivo", "conditions": "at much lower dose than olaparib"}, "[14]": {"experiment": "Metabolism in mouse liver microsomes", "assay_type": "in vitro ADME"}, "[15]": {"experiment": "Nonclinical toxicity, single and repeat dose up to 28 days, rats", "assay_type": "in vivo"}, "[16]": {"tested_on": "H209 SCLC xenograft", "experiment": "H209 SCLC xenograft model, combination with TMZ", "assay_type": "in vivo, mouse", "conditions": "combination of Compound 1 and TMZ, multiple cycles", "text": "as §1"}, "[17]": {"experiment": "Metabolism in monkey liver microsomes", "assay_type": "in vitro ADME"}, "[18]": {"tested_on": "TMZ-resistant (TR) H209 tumors", "experiment": "TMZ-resistant H209-TR xenograft mouse model", "assay_type": "in vivo", "conditions": "combination of Compound 1 and TMZ", "text": "as §1"}, "[19]": {"experiment": "Metabolism in human liver microsomes", "assay_type": "in vitro ADME"}, "[20]": {"experiment": "Metabolism in dog liver microsomes", "assay_type": "in vitro ADME"}, "[21]": {"tested_on": "CYP2B6", "experiment": "CYP induction, CYP2B6", "assay_type": "in vitro ADME, human"}, "[22]": {"tested_on": "human CYP1A2", "experiment": "CYP induction, CYP1A2", "assay_type": "in vitro ADME"}, "[23]": {"experiment": "Brain penetration", "conditions": "in vivo"}, "[24]": {"tested_on": "PARP", "conditions": "for PARylation inhibition in tumor: 5.45 mg/kg single oral dose"}}, "note": "Like-named read-outs stand apart in the source and are kept apart here.", "data": [{"compound": "C[C@]12CCCN1CC1=NNC(=O)c3cc(F)cc4[nH]c2c1c34", "note": "[Compound 1, (R)-2-fluoro-10a-methyl-7,8,9,10,10a,11-hexahydro-5,6,7a,11-tetraazacyclohepta[def]cyclopenta-[a]fluoren-4(5H)-one]", "values": [{"measurement": "EC50", "setting": "[1]", "result": "~9", "unit": "µM"}, {"measurement": "reversibility of toxicity", "setting": "[2]", "result": "reversible after 28-day recovery phase"}, {"measurement": "major target organ of toxicity", "setting": "[2]; up to 28 days", "result": "bone marrow"}, {"measurement": "excreted in urine and bile", "setting": "[3]", "result": "Less than 1%"}, {"measurement": "drug concentration in organs as % of the peak concentration", "setting": "[3]; oral, 24 hours post-dosing", "result": "less than 10%"}, {"measurement": "major CYP isoform responsible for metabolism", "setting": "[4]", "result": "CYP3A"}, {"measurement": "animal survival compared to TMZ single agent", "setting": "[5]", "result": "significantly prolonged animal survival"}, {"measurement": "accumulation following multiple oral dosing", "setting": "[6]", "result": "no accumulation"}, {"measurement": "metabolism rate in liver microsomes", "setting": "[7]", "result": "metabolized slowly"}, {"measurement": "mutagenicity", "setting": "[8]", "result": "No mutagenicity"}, {"measurement": "Plasma protein binding (PPB)", "setting": "[9]", "result": 84.9, "unit": "%"}, {"measurement": "clinical response", "setting": "[10]", "result": "partial or complete responses"}, {"measurement": "accumulation following multiple oral dosing", "setting": "[11]", "result": "no accumulation"}, {"measurement": "induction of human CYP3A", "setting": "[12]", "result": "not an inducer"}, {"measurement": "tumor regression", "setting": "[13]", "result": "significantly induces tumor regression"}, {"measurement": "metabolism rate in liver microsomes", "setting": "[14]", "result": "metabolized slowly"}, {"measurement": "reversibility of toxicity", "setting": "[15]", "result": "reversible after 28-day recovery phase"}, {"measurement": "major target organ of toxicity", "setting": "[15]; up to 28 days", "result": "bone marrow"}, {"measurement": "effect of combination with TMZ on resistance", "setting": "[16]", "result": "significantly delayed resistance without additional toxicity"}, {"measurement": "metabolism rate in liver microsomes", "setting": "[17]", "result": "quickly"}, {"measurement": "sensitivity of H209-TR lines to combination with TMZ", "setting": "[18]", "result": "remained sensitive"}, {"measurement": "metabolism rate in liver microsomes", "setting": "[19]", "result": "metabolized slowly"}, {"measurement": "metabolism rate in liver microsomes", "setting": "[20]", "result": "metabolized slowly"}, {"measurement": "induction of human CYP2B6", "setting": "[21]", "result": "not an inducer"}, {"measurement": "induction of human CYP1A2", "setting": "[22]", "result": "not an inducer"}, {"measurement": "brain penetration", "setting": "[23]", "result": "significant brain penetration"}, {"measurement": "PARylation inhibition in tumor", "setting": "[24]; 0.5 hour after treatment", "result": 98, "unit": "%"}, {"measurement": "PARylation inhibition in tumor", "setting": "[24]; at 24 hours", "result": 53, "unit": "%"}, {"measurement": "PARylation inhibition in tumor", "setting": "[24]; through the first 12 hours", "result": "> 80", "unit": "%"}, {"measurement": "single oral dose at which potent inhibition of PARylation was observed", "setting": "[24]; at 4 hours after single oral dose", "result": "≥ 0.34", "unit": "mg/kg"}, {"measurement": "concentration in tumor tissues needed to achieve at least 80% PARylation inhibition", "setting": "[24]; dose titration and time course study", "result": "over 0.5 μmol/kg"}]}]}
